Series [1] relates to 13-series resolvins (RvT). The series is described as follows: Lipid mediator profiling (LC-MS/MS) of paws in K/BxN serum inflammatory arthritis. The class given is in vivo, mice. The conditions noted are these: for increase in overall RvT amounts in joints/paws compared with vehicle: paws collected day 8, 24 h after last dose. On the procedure: (§1) JCI Insight. 2016; 1(5):e85922.
(§2) Blood and paws were collected either on day 8 after arthritis onset or 2 h after statin injection on day 7.
Ice-cold methanol containing 500 pg of each deuterated (d) internal standard: d8-SSHydroxyeicosatetraenoic, d4-Leukotriene (LT) B4, d5-Lipoxin (LX) A4, d-Prostaglandin (PG) E2 and d5-Resolvin D2, was added to samples. […] J Clin Invest. 2017; 127(1):169-182.
Using multiple reaction monitoring the concentrations of mediators identified in these paws were quantified.

The test system of series [2] is circulating monocytes, neutrophils and platelets. The series is described as follows: Flow cytometry of circulating leukocytes and platelets in inflammatory arthritis. The class given is in vivo, mice. The conditions noted are these: 0.2 mg/Kg days 3, 5, 7; blood day 8, vs vehicle. Background: Flow cytometry measures light scatter and fluorescence of single cells or particles in a stream.

For series [3], the system named is joint non-classical monocytes, neutrophils and monocyte-derived macrophages. Briefly: Flow cytometry of leukocytes isolated from inflamed paws/joints. It counts as in vivo, mice. As to conditions: paws day 8, vs vehicle. On the procedure:
Front paws were collected on day 8 and digested to liberate infiltrating leukocytes. Leukocyte subsets were defined using antibodies against specific markers and flow cytometry. Trafficking and activation of (A) non-classical monocytes, (B) neutrophils, (C) monocyte-derived macrophages were assessed.
as §1
Paws were harvested and leukocytes isolated as described in Dalli J et al. 2015 (ibid). Briefly, paws were incubated in RPMI-1640 (containing […] collagenase D and 40 µg/mL DNAse I) at 37° C. for 30 minutes with vigorous agitation. Isolated cells were passed through a […] strainer and suspended in RPMI-1640 containing […] and 10% FBS, then centrifugated at 400×g, 10 minutes. Isolated cells were suspended in DPBS−/− containing 0.02% BSA and 1% Fc-blocking IgG (v/v), and incubated with 0.1% Live/Dead stain for 20 minutes on ice. Cells were washed using DPBS−/− and incubated with fluorescent-labelled antibodies for 45 minutes on ice. These were then washed and fixed using 1% paraformaldehyde. Absolute counting beads were used for leukocyte enumeration. Staining was then evaluated using a flow cytometry analyser and analysed using suitable software.
First, the trafficking of non-classical monocytes to the inflamed joints was assessed, given their role in disease onset and propagation of K/B×N serum initiated inflammatory arthritis.

The test system of series [4] is 13-series resolvins (RvT) and eicosanoids. As to conditions: blood 2 h after last statin dose on day 7.
The next series relates to E. coli infections. The conditions noted are these: atorvastatin and RvTs, additive actions; cited from earlier work.
Another series relates to Male C57BL/6 mice. Briefly: K/BxN serum inflammatory arthritis: 26-point clinical score, paw swelling, knee H&E histology. It counts as in vivo. The conditions noted are these: 0.2 mg/Kg days 3, 5, 7. Here is the method: Male C57BL/6 mice (11 weeks old) were procured from Charles River (Kent, UK). All animals were provided with standard laboratory diet and water ad libitum and kept on a 12 h light/dark cycle.
as §1, §2
Arthritis was initiated and mice were treated and disease progression monitored as described above.

For series [5] the following is noted: clearance from the circulation; cited from earlier work.
Setting [6] is: celecoxib 10 mg/Kg 1 h prior to pravastatin or atorvastatin, paws day 8.

Where only a bound is given, the exact number is not on record here.

Take `CC(C)c1c(C(=O)Nc2ccccc2)c(-c2ccccc2)c(-c2ccc(F)cc2)n1CC[C@@H](O)C[C@@H](O)CC(=O)O` [atorvastatin]: the “increase in overall RvT amounts in joints/paws compared with vehicle” value in series [1] (0.2 mg/Kg i.v. days 3, 5, 7) was 43%. For the same compound, the “individual RvT increased in paws compared with vehicle” value in series [1] (0.2 mg/Kg i.v. days 3, 5, 7, paws day 8) is “increased RvT1, RvT2, RvT3 and RvT4”. In series [2], the “neutrophil CD11b expression (circulating)” value is “significantly reducing”, the “reduction in CD11b expression on circulating classical monocytes” value is listed as “regulated”, the “reduction in CD11b expression on circulating non-classical monocytes” value is listed as “regulated” and the “reduction in platelet CD62P expression” value is ~60%. Further, in series [2], the “reduction in platelet-monocyte aggregates (both monocyte subsets)” value was “regulated” and the “reduction in platelet-neutrophil aggregates” value is given as “significantly reducing”. The “reduction in total numbers of non-classical monocytes recruited to the joints” value in series [3] (0.2 mg/Kg days 3, 5, 7) is > 60%. In addition, in series [3] (0.2 mg/Kg), the “CD11b expression on joint non-classical monocytes” value is reported as “reduction”; the “MHCII expression on joint non-classical monocytes” value is on record as “significant reduction”; the “joint neutrophil CD11b and MHCII expression” value is “did not reach statistical significance”; the “neutrophil trafficking to the joint” value is recorded as “decreased”. For the same compound, the “number of monocyte-derived macrophages in joints and their CD11b and MHCII expression” value in series [3] (0.2 mg/Kg) was “significant reduction”. In addition, in series [4], the “decrease in circulating PGD2” value is recorded as “decreased” and the “decrease in circulating PGE2” value is “decreased”. In addition, the increased survival in the series with E. coli infections is on record as > 60%. In addition, the “joint swelling (midfoot pad thickness)” value in the series with Male C57BL/6 mice is on record as “reduced joint swelling”. Further, the “H&E knee joint sections: leukocyte infiltration, pannus formation and joint damage” value with Male C57BL/6 mice (day 8, vs vehicle) was “reduced leukocyte infiltration, pannus formation and joint damage”. For the same compound, the “maximum disease score (26-point clinical score)” value with Male C57BL/6 mice (maximum at day 5) worked out at 9.1±1.2.

Consider `CC[C@H](C)C(=O)O[C@H]1C[C@H](O)C=C2C=C[C@H](C)[C@H](CC[C@@H](O)C[C@@H](O)CC(=O)O)[C@H]21` [pravastatin], for which the “increase in overall RvT amounts in joints/paws compared with vehicle” value in series [1] (0.2 mg/Kg i.v. days 3, 5, 7) is ~20%. In addition, in series [5], the half-life (in general, the time needed for the level to fall by half in the phase considered) was ~3 h. Also, in series [2], the “reduction in CD11b expression on circulating classical monocytes” value is given as ~40%, the “reduction in CD11b expression on circulating non-classical monocytes” value is given as ~10%, the “reduction in platelet CD62P expression” value is ~70% and the “reduction in platelet-monocyte aggregates (both monocyte subsets)” value is listed as ~35%. Further, the “reduction in platelet-neutrophil aggregates” value in series [2] is given as ~25%. In series [4], the “decrease in circulating PGD2” value is recorded as ~46%, the “decrease in circulating PGE2” value is on record as ~29% and the “increase in plasma/peripheral blood RvT compared with vehicle” value is reported as > 100%. Further, the “reduction in disease activity compared with vehicle” value in the series on Male C57BL/6 mice (day 5 through day 7) is ~23%.

In the case of `Cc1ccc(-c2cc(C(F)(F)F)nn2-c2ccc(S(N)(=O)=O)cc2)cc1` [celecoxib], in series [1] (setting [6]), the “reduction in joint RvT1 concentration compared to statin alone” value is > 75% and the “reduction in joint RvT compared to statin alone” value is ~60%.
